Activity calls are given as the source filed them.
Key:
[1] = molecular target: Peroxisome proliferator-activated receptor gamma/Nuclear receptor corepressor 2 (Homo sapiens, UniProt P37231+Q9Y618); test: Counterscreen for NR2E3 inverse agonists: TR-FRET-based biochemical high throughput dose response assay to identify inverse agonists of the interaction between peroxisome proliferator-activated receptor gamma (PPARg) and nuclear receptor co-repressor 2 (NCOR2).; assay type: functional
[2] = molecular target: Photoreceptor-specific nuclear receptor (Homo sapiens, UniProt Q9Y5X4); test: ligands suppressing NR2E3 nuclear receptor activity – biochemical, TR-FRET, dose response (AID 463256); assay type: functional
Genome polyprotein = Genome polyprotein (Hepatitis C virus, UniProt Q2Q167); test: disruption of hepatitis C core self-association – biochemical, TR-FRET, dose response (AID 2159); design: species or system Hepacivirus hominis;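 note: blocks dimerization of HCV core protein measured by TR-FRET between tagged core106 pairs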
INS1 = test: INS-1E survival protection against cytokine death – cell-based, luminescence, retest, dose response (AID 449756); assay type: functional; settings: Rattus norvegicus;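 note: cell death triggered by IL-1 beta plus TNF-alpha plus IFN-gamma mixture; protective hits raise ATP signal compared with cytokine alone wells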
Caspase-6 = molecular target: T1, Caspase-6 (Homo sapiens, UniProt P55212); test: inhibition of CASP6 peptide cleavage – biochemical, VEID-R110 fluorescence, cherry-pick, dose response (AID 720632)
T1 sequence (P55212 whole entry): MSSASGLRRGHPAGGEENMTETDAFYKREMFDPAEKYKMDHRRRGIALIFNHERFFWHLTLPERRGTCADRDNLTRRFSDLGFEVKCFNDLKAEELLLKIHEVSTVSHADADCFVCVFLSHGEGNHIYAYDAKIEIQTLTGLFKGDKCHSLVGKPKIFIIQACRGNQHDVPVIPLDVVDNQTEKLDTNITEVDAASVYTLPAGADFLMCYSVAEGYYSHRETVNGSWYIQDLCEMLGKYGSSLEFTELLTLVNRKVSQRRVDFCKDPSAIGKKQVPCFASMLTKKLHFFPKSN

[3] = molecular target: Glyceraldehyde-3-phosphate dehydrogenase (Homo sapiens, UniProt P04406)
Bcl-2-related protein A1 [4] = molecular target: T2, Bcl-2-related protein A1 (Mus musculus, UniProt Q07440); test: small-molecule antagonists of Bfl-1/BH3 interaction – biochemical, TR-FRET, mouse Bfl-1, confirmation (AID 621);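 note: TR-FRET binding of GST-Bfl-1 to FITC-labelled Bid peptide via terbium antibody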
T2 sequence (Q07440 whole entry): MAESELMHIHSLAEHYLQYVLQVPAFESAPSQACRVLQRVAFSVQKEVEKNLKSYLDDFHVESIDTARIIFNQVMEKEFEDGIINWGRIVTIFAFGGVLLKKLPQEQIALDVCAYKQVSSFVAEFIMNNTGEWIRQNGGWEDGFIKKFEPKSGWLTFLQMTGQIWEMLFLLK

Bcl-2-related protein A1 [5] = molecular target: T2, Bcl-2-related protein A1; test: Bfl-1 binding inhibitors, SAR follow-up, biochemical, fluorescence polarization (AID 1070)
[6] = Luminescence Cell-Based Dose Confirmation HTS to Identify Inhibitors of Polyadenylation.; assay type: functional
[7] = Luminescent dose response cell-based high throughput screening assay for inhibitors of the Janus kinase 2 mutant JAK2V617F. [Related pubchem assays: 1446 (Primary screen.), 1521 (Confirmation assay.), 1486 (Counter screen.)]; assay type: functional
[8] = Luminescence Cell-Based Dose Confirmation HTS to Identify Activators of 5'UTR Stem-Loop Driven Alpha-Synuclein mRNA Translation in H4 Neuroglioblastoma Cells. [Related pubchem assays: 1829 (Project Summary), 1814 (Primary HTS)]; assay type: functional
[9] = Luminescence Cell-Based Dose Response HTS to Identify Activators of Luciferase Translation or Activity in H4 […] Cells. [Related pubchem assays: 1829 (Project Summary), 1814 (Primary HTS)]; assay type: functional
H4 = test: Luminescence Cell-Based Dose Response HTS to Identify Activators of 5'UTR Stem-Loop Driven Prion Protein mRNA Translation in H4 Neuroglioblastoma Cells. [Related pubchem assays: 1829 (Project Summary), 1814 (Primary HTS)]; assay type: functional; settings: Homo sapiens
[10] = molecular target: Protein-tyrosine kinase 2-beta (Homo sapiens, UniProt Q14289);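 note: potency of inhibitors of PYK2 kinase phosphorylation of poly-GT substrate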
[11] = molecular target: T3, RNA-binding protein pos-1 (Caenorhabditis elegans, UniProt G5EF15); test: disruptors of C. elegans POS-1 RNA interaction – biochemical, fluorescence polarization, dose response (AID 1964);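 note: purified POS-1 fused to maltose binding protein made in E. coli; potency of compounds blocking POS-1 binding to fluorescent RNA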
T3 sequence (G5EF15 whole entry): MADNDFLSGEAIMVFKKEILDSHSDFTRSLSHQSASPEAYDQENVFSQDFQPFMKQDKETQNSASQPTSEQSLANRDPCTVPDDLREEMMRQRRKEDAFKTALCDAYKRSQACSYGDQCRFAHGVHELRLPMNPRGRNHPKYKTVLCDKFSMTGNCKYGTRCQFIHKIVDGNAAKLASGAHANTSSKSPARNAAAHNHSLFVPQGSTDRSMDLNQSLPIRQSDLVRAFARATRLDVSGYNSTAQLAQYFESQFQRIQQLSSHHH

[12] = molecular target: T4, Zinc finger protein mex-5 (Caenorhabditis elegans, UniProt Q9XUB2); test: potency of MEX-5 RNA-binding blockers – biochemical, C. elegans, fluorescence polarization, dose response (AID 1960)
T4 sequence (Q9XUB2 whole entry): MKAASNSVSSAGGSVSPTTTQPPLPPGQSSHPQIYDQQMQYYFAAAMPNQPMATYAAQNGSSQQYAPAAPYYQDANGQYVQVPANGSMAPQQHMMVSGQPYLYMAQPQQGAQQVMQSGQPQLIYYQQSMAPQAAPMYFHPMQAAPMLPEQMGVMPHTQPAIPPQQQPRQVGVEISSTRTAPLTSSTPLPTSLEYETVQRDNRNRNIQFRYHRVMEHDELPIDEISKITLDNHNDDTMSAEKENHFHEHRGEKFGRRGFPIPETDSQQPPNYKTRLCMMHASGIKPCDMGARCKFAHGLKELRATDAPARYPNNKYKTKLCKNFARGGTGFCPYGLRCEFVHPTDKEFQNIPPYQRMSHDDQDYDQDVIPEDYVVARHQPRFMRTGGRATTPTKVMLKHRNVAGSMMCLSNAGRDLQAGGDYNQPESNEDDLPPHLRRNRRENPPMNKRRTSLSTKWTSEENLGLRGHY

Large T antigen = Large T antigen (Simian virus 40, UniProt P03070); assay type: functional, Betapolyomavirus macacae;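 note: Confirmatory-stage PubChem screen for compounds that inhibit SV40 T antigen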
[13] = NIH-3T3 fibroblast cytotoxicity, dose response, cytotoxicity control, cell-based, fluorescence, Alamar Blue, secondary assay (AID 2327); assay type: functional;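 note: NIH-3T3 mouse fibroblasts cultured with fluconazole at 8 µg/mL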
[14] = molecular target: Sphingosine 1-phosphate receptor 2 (Homo sapiens, UniProt O95136); test: Dose Response Cell Based Assay for Antagonists of the S1P2 Receptor. [Related pubchem assays: 856, 736 ]; assay type: functional
[15] = test system: Streptococcus sp. 'group A'; test: Streptococcus pyogenes SK(-)GAS viability under kanamycin – luminescence, BacTiterGlo, confirmation, counter-screen for streptokinase expression inhibitor project, dose response (AID 1900); assay type: functional, organism-based
BJ [16] = test: BJ-TERT fibroblast viability loss – cell-based, RAS-independent, luminescence, dose response (AID 1933); assay type: functional; settings: Homo sapiens
Streptokinase A = molecular target: T5, Streptokinase A (Streptococcus pyogenes serotype M1, UniProt P10520); test: viability-normalized secreted streptokinase activity reduction – plasminogen activation absorbance, OD405, dose response (AID 1914); assay type: functional, Streptococcus pyogenes M1 GAS;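 note: secreted streptokinase activity via plasminogen activation per viability signal from cell pellet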
T5 sequence (P10520 whole entry): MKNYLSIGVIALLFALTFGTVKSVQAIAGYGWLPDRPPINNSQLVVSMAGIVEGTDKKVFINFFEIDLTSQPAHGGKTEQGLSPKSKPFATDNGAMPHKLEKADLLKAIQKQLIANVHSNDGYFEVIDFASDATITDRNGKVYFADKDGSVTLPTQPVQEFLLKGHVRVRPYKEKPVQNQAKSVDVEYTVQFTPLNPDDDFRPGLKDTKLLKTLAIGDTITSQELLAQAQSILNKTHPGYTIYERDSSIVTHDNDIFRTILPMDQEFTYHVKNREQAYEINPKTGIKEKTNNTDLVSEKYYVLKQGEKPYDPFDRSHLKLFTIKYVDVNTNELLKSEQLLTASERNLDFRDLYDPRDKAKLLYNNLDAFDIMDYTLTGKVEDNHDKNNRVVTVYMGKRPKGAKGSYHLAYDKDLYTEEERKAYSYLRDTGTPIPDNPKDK

BJ [17] = test: cells; assay type: functional, cell-based; settings: Homo sapiens
[18] = fluconazole-exposed Candida albicans growth modulators – fluorescence, retest, confirmation (AID 2467); assay type: functional, cell-based
[19] = viability of PTEN-deleted HCT116 cells – cell-based, HCT116 PTEN knockout, dose response (AID 1047); assay type: functional;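 note: HCT116 colon tumor cells with PTEN knocked out; cells exposed to compound for 60 hours before readout; potency for loss of cell viability measured by luminescence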
[20] = viability of HCT116 lacking mutant beta-catenin – cell-based, human colon tumor, dose response (AID 1045); assay type: functional;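 note: HCT116 colon tumor cells with beta catenin knocked out; cells exposed to compound for 60 hours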
BJ [21] = test: BJ-TERT-LT-ST fibroblast viability loss – cell-based, RAS-independent, luminescence, dose response (AID 1935); assay type: functional; settings: Homo sapiens;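 note: BJ fibroblasts immortalized with TERT plus LT and ST oncogenes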
[22] = DRD fibroblast viability loss – cell-based, non-viral oncogenic, luminescence, dose response (AID 1934); assay type: functional; settings: Homo sapiens
Streptococcus = test: GAS UMAA2166 growth inhibition – luminescence, BacTiterGlo, counter-screen for streptokinase expression inhibitor project, dose response (AID 1915); assay type: functional, organism-based;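 note: potency for reduction of bacterial viability or growth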
[23] = molecular target: Eukaryotic translation initiation factor 4E (Mus musculus, UniProt P63073); test: blockers of eIF4G binding by eIF4E – biochemical, TR-FRET, dose response (AID 855); assay type: functional;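 note: potency for disrupting eIF4E binding to eIF4GI seen as loss of FRET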
[24] = HEK-293T viability loss after treatment – luminescence, T-cell screen hits, cytotoxicity control for TCR NF-kB inhibitor project, dose response (AID 489026); assay type: functional, cell-based;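 note: cells exposed to compound about 14 hours before the viability readout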
Nonstructural protein 1 = Nonstructural protein 1 (Influenza A virus, UniProt Q194T2); assay type: functional, Influenza A virus (A/California/07/2009(H1N1))
BJ [25] = test: growth inhibition of engineered Ras-driven BJ cells – cell-based, alamar blue fluorescence, cherrypicked samples, dose response (AID 2631); assay type: functional; settings: Homo sapiens;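 note: confirmatory dose-response assay in RAS-dependent BJ fibroblasts engineered with TERT, LT and ST, with cytotoxicity read by fluorescence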
[26] = viability loss in HeLa cells – cytotoxicity control for MgcRacGAP inhibitor project, dose response (AID 624300); assay type: functional
[27] = molecular target: T6, Rac GTPase-activating protein 1 (Homo sapiens, UniProt Q9H0H5); test: blockers of MgcRacGAP-driven Rac1 GTP hydrolysis – biochemical, ADP Hunter fluorescence, primary and confirmatory, confirmation (AID 624330); assay type: functional
T6 sequence (Q9H0H5 whole entry): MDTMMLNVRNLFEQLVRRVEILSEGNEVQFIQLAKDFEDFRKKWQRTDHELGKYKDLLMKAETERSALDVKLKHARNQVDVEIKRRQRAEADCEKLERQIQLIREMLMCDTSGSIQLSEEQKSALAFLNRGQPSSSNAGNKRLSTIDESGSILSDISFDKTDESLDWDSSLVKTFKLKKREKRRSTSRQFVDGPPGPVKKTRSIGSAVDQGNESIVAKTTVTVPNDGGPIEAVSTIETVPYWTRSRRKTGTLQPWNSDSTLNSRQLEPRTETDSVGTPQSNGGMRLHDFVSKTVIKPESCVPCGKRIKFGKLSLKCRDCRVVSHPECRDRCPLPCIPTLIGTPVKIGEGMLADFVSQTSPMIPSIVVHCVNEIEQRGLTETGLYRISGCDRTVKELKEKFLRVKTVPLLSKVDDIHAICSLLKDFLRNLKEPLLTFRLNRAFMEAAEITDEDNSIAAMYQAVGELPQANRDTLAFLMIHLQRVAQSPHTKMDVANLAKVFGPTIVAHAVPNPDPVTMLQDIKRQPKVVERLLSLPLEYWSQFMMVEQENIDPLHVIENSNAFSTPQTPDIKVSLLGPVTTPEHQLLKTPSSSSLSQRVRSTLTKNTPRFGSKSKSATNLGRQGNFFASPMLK

Glyceraldehyde-3-phosphate dehydrogenase, sequence (P04406 whole entry): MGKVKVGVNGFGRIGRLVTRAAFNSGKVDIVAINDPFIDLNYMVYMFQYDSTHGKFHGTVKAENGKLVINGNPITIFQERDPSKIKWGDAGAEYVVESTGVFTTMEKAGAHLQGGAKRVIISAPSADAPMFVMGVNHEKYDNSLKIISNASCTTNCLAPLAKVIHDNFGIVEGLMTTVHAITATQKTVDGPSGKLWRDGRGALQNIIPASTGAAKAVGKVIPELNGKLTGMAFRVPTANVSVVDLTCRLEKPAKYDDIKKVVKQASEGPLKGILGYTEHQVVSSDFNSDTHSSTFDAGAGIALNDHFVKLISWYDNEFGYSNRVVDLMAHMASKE
Photoreceptor-specific nuclear receptor, sequence (Q9Y5X4 whole entry): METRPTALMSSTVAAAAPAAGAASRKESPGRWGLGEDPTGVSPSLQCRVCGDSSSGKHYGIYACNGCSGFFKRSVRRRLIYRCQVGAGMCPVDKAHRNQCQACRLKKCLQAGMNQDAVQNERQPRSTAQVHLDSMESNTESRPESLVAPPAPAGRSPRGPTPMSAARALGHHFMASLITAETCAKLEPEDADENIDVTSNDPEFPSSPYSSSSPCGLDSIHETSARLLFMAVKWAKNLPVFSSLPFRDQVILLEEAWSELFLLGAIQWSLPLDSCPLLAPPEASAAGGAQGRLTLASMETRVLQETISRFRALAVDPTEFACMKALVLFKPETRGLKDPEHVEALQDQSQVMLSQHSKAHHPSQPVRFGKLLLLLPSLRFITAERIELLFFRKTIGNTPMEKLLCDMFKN
Genome polyprotein, sequence (Q2Q167 whole entry): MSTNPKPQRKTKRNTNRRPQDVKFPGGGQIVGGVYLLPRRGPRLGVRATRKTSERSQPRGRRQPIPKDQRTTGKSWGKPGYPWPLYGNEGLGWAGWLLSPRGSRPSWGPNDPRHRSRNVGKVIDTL
Protein-tyrosine kinase 2-beta, sequence (Q14289 whole entry, the tested form may be a part): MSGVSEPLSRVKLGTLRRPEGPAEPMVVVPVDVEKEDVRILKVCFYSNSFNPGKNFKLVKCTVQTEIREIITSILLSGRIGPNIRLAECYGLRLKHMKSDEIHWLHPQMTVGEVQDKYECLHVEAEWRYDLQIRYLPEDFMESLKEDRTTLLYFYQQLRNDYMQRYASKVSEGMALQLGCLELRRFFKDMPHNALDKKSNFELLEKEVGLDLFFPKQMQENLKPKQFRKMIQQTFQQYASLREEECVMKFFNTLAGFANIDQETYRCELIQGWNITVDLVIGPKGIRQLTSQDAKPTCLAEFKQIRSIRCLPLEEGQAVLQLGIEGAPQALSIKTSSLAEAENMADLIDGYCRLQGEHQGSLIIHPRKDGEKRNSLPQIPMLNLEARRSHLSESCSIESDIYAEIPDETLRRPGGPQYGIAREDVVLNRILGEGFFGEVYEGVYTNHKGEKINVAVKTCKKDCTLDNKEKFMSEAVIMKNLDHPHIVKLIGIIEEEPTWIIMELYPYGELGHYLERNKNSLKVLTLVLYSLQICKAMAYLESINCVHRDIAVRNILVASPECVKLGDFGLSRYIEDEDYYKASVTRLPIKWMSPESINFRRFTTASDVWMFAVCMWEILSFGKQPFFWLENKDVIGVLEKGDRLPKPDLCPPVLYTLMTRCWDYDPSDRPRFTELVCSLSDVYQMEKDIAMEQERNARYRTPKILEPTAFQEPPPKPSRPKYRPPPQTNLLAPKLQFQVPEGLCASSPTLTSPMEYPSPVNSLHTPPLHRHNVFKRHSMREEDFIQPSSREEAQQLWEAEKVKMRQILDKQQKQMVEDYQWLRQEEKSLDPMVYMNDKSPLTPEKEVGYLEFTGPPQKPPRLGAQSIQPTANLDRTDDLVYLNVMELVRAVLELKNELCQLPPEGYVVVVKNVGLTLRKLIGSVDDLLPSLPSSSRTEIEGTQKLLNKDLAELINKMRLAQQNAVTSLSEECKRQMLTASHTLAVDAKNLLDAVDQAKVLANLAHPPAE
Peroxisome proliferator-activated receptor gamma/Nuclear receptor corepressor 2, sequence (P37231 whole entry): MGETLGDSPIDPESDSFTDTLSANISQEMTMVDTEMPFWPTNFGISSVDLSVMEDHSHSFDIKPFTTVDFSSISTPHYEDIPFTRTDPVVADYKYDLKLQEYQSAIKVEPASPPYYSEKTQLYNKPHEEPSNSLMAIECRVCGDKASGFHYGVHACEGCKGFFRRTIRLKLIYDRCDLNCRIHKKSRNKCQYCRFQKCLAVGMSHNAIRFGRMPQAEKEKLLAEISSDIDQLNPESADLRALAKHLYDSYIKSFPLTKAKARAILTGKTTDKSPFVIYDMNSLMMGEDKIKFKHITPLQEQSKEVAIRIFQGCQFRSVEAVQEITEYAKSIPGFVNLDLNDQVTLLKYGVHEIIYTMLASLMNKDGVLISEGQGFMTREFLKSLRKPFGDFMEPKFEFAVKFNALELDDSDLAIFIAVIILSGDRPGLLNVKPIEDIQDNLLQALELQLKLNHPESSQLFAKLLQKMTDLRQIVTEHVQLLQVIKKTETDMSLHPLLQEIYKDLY
Peroxisome proliferator-activated receptor gamma/Nuclear receptor corepressor 2, sequence (Q9Y618 whole entry): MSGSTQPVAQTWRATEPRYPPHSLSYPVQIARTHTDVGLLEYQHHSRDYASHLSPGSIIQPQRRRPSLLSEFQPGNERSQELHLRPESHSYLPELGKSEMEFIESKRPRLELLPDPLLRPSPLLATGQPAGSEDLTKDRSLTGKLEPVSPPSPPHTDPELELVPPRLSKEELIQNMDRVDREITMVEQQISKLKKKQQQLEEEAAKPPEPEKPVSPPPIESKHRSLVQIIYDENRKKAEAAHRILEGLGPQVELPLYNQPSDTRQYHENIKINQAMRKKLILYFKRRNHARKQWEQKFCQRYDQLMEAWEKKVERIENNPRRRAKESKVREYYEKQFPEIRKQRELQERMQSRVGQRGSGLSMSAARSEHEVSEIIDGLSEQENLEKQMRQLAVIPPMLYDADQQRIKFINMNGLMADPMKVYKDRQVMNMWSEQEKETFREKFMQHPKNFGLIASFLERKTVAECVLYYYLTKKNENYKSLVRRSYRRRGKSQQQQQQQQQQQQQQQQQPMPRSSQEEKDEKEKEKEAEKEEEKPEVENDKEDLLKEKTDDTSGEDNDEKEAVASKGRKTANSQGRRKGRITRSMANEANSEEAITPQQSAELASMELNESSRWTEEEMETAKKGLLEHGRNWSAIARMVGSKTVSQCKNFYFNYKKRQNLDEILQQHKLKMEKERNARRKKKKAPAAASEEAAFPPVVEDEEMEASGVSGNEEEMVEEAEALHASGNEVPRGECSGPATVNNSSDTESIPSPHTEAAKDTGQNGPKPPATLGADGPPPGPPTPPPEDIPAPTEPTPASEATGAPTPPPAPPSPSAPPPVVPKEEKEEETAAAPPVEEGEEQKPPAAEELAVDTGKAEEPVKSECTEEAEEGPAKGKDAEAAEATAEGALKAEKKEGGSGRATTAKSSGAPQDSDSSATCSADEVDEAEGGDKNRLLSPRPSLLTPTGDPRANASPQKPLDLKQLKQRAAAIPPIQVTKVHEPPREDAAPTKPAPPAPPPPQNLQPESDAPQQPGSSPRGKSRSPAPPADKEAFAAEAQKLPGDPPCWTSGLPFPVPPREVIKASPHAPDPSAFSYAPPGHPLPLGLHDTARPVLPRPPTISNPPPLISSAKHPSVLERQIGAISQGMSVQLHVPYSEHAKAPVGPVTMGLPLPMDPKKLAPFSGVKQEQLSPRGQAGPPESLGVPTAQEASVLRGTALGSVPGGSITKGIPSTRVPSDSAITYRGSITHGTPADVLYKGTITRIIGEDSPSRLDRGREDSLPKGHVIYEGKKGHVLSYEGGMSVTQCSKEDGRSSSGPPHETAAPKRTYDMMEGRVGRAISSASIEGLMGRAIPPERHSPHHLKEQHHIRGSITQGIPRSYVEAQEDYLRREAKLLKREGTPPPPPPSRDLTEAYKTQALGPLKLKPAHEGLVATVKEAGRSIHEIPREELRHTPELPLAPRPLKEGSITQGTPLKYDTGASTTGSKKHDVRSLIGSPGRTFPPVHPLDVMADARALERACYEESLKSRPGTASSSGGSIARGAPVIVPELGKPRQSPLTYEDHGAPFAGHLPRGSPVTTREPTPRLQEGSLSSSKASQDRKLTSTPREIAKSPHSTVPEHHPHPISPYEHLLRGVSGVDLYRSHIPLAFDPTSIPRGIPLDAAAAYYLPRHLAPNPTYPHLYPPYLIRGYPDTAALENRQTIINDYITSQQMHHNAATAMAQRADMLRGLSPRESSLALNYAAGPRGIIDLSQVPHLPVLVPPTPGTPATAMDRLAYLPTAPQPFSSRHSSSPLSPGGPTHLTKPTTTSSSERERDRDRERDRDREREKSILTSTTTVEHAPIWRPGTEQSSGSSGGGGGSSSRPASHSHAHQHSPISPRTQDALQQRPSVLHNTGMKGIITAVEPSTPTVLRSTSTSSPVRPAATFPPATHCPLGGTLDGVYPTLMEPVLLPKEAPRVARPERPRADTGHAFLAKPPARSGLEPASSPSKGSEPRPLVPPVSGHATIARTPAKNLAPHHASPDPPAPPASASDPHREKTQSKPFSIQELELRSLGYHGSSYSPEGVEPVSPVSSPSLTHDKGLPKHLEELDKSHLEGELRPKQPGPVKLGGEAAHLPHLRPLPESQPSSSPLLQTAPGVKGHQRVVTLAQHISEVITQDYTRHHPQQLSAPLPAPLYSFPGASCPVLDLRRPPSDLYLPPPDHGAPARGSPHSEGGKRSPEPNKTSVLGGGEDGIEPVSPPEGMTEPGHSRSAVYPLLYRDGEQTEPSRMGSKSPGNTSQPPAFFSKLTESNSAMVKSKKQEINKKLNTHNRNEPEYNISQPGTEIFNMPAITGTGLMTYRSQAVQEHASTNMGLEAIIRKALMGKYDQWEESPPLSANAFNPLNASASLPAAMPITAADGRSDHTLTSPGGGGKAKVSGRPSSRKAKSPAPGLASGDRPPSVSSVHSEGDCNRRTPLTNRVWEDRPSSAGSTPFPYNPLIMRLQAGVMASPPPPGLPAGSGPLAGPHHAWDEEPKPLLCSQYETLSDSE

## COc1ccc2[nH]c(C(=O)Nc3ccc(F)cc3Br)cc2c1
[1]
  IC50: > 39.9 µM (not active)
[2]
  IC50: > 39.9 µM (not active)

## CC1=NN(c2ccc(C)c(C)c2)C(=O)/C1=C\C=C\c1ccc([N+](=O)[O-])o1
Genome polyprotein
  IC50: > 49.8 µM (not active)
INS1
  AC50: 4.08 µM (active)
Caspase-6
  AC50: 1.79 µM (active)

## O=C1C(Cl)=C(Cl)C(=O)N1c1ccnc(Cl)c1
[3]
  IC50: > 100 µM (not active)
Bcl-2-related protein A1 [4]
  IC50: 39.9 µM (active)
Bcl-2-related protein A1 [5]
  IC50: > 100 µM (not active)

## COc1ccc(N2CCN(C(=O)c3ccc4c(c3)NC(=O)C(CSCc3ccc(C)cc3)N4)CC2)cc1 (configuration not stated)
Genome polyprotein
  IC50: > 49.8 µM (not active)

## COc1ccc2no[n+]([O-])c2c1
[6]
  EC50: > 120 µM (not active)

## Cc1cc2c(s1)c1cnn(CC(=O)NCCc3ccccc3)c(=O)c1n2C
[1]
  IC50: 2.65 µM (active)
[2]
  IC50: 2.52 µM (active)

## CC1CN(C2=C(Cl)C(=O)N(c3ccc(Cl)c(Cl)c3)C2=O)CCN1 (configuration not stated)
[3]
  IC50: > 100 µM (not active)
Bcl-2-related protein A1 [4]
  IC50: 1.95 µM (active)
Bcl-2-related protein A1 [5]
  IC50: 6.96 µM (active)

## Cc1nc(O)c(C(=O)/C=C/c2ccccc2F)c2c1CCCC2
[7]
  IC50: 1.52 µM (active)
[8]
  EC50: 9.92 µM (active)
[9]
  EC50: > 120 µM (not active)
H4
  EC50: > 120 µM (not active)

## O=C(N/N=C1/C(=O)c2cccc3cccc1c23)c1ccc(Cl)cc1
[10]
  IC50: 4.31 µM (active)

## Oc1ccc2ccccc2c1/C=N/c1ccc(N2CCOCC2)cc1
[11]
  EC50: > 300 µM (not active)
[12]
  EC50: > 300 µM (not active)
Large T antigen
  IC50: 36 µM (active)
[10]
  IC50: 10.6 µM (not active)

## CCN1/C(=C/c2ccc3ccccc3[n+]2CC)C=Cc2ccccc21
[13]
  EC50: 12 µM (active)
[14]
  IC50: 3.1 µM (active)
[15]
  EC50: 4.74 µM (active)
BJ [16]
  EC50: 1.21 µM (active)
Streptokinase A
  EC50: > 150 µM (not active)
BJ [17]
  EC50: 2.73 µM (active)
[18]
  EC50: 0.639 µM (active)
[19]
  EC50: 0.249 µM (active)
[20]
  EC50: 0.167 µM (active)
BJ [21]
  EC50: 3.1 µM (inconclusive)
[22]
  EC50: 3.27 µM (active)
Streptococcus
  EC50: 35 µM (active)
[23]
  IC50: 33.8 µM (inactive)
[24]
  IC50: 33.1 µM (inactive)
Nonstructural protein 1
  IC50: 12.8 µM (active)
BJ [25]
  EC50: 1.89 µM (active)
[26]
  CC50: 19 µM (active)
[27]
  IC50: 46.5 µM (active)

Reference: ChEMBL document CHEMBL1201862, “PubChem BioAssay data set” (2004)
